Results from PubChem BioAssay AID1963829 (Molecular Pharmacology Branch, DTP, NCI, 2024).
Several values for one entry are separate records, joined by “and”; a condition that tells them apart may be missing. Equal entries are not always repeated.

System: 935938-334-R-J1-PDC complex spheroid viability
Test: Anticancer human tumor 935938-334-R-J1-PDC patient-derived small intestine adenocarcinoma cell line growth inhibition [POLQ]
Details: for viability, T/C: stronger effect = lower value
Description: Multicellular complex tumor spheroid response to Polymerase (POL) inhibitors (novobiocin, ART-558, RP6685) in combination with a variety of drugs and investigational agents in selected tumor cell lines
The POL inhibitors (novobiocin, ART-558, and RP6685) were evaluated both individually and in combination with standard of care and investigational anticancer small molecules within a complex spheroid model of solid tumors. . Complex spheroids include a stromal component modeled by human endothelial cells (HUVEC) and fibroblasts modeled by human mesenchymal stem cells (MSCs). The concentration ranges selected for each drug and investigational agent were based upon clinically achievable concentrations if the clinical Cmax of the agent was known.
Compounds. The drugs and investigational agents: novobiocin (NSC847541), ART-558 (NSC835418), RP-6685 (NSC848927), peposertib (NSC802822), ceralasertib (NSC780249), elimusertib (NSC800525), camonsertib (NSC841442), AZD-1390 (NSC803789), olaparib (NSC753686), talazoparib (NSC767125), rucaparib (NSC756644), sotorasib (NSC818433), MRTX-1133 (NSC836407), SN-38 (NSC673596), topotecan (NSC609699), epotoside (NSC141540), doxorubicin (NSC123127), gemcitabine (NSC613327), 5-fluorouracil (NSC19893), paclitaxel (NSC125973), vemurafenib (NSC761431), MSA-2 (NSC828583), SN-011 (NSC837082), adavosertib (NSC754352), prexasertib (NSC758257), carboplatin (NSC241240) and oxaliplatin (NSC266046), were obtained from the National Cancer Institute (NCI) Developmental Therapeutics Program Chemical Repository (21). The FDA-approved anticancer drug set is available from the Developmental Therapeutics Program at https://dtp.cancer.gov/organization/dscb/obtaining/. […] The stock solutions were prepared in dimethyl sulfoxide (DMSO, Sigma-Aldrich, St. Louis, MO, cat. D2650), except for the platinum compounds which were prepared in saline (Quality Biological, Gaithersburg, MD, cat. 114-055-101), at 800-fold the tested concentration and stored at -70 degrees C prior to their use. All drugs and investigational agents were tested over a range starting from a high concentration at or near the clinical Cmax and decreasing in half-log increments. If the clinical Cmax for an agent had not been determined, the highest concentration tested was 10 microM, except for SN-38, which was tested at a high concentration of 1 microM.
Cell Culture. All cells were maintained in an incubator at 37 degrees C and 5% CO2 with 95% humidity. The PDC lines were cultured according to standard operating procedures established by the NCI PDMR (https://pdmr.cancer.gov). Table 3 of the manuscript, lists the cell lines along with the number of the three cell types plated to form the mct-spheroids and media for tumor cell growth. After thawing, all PDC lines, except 997537-175-T-J1-PDC and 415267-285-R-J2-PDC, were cultured in Matrigel-coated flasks prepared with a working solution of 1X Ham's F-12 nutrient mix, without supplementation (Thermo Fisher Scientific, cat. 11765054), 100 U/mL penicillin-streptomycin (Thermo Fisher Scientific, cat. 15140122), and 2.5% Matrigel (Corning Inc., Corning, NY, cat. 354248) for the first three passages. The two PDC lines 997537-175-T-J1-PDC and 415267-285-R-J2-PDC were cultured on uncoated flasks. The 857933-349-R-J2-PDC line was cultured in 6C/Colon 1B media containing advanced DMEM/F-12 (Thermo Fisher Scientific, cat. 12634028), 10 mM HEPES (Thermo Fisher Scientific, cat. 15630080), 1X GlutaMAX supplement (Thermo Fisher Scientific, cat. 35050061), 0.1 mg/mL primocin (InvivoGen, San Diego, CA, cat. ant-pm-2), 10% defined fetal bovine serum, heat inactivated (HyClone Laboratories Inc., Logan, UT, cat. SH30070.03HI), 50% L-WRN conditioned media (ATCC, cat. CRL-3276), 1.25 mM N-Acetyl-L-cysteine (Sigma-Aldrich, cat. A9165), 10 mM nicotinamide (Sigma-Aldrich, cat. N0636), 1X B-27 supplement (Thermo Fisher Scientific, cat. 17504044), 1X N-2 supplement (Thermo Fisher Scientific, cat. […]
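Note: spheroids exposed to drugs for seven days before viability read.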
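Throughout, for viability, T/C: 100% = DMSO vehicle control wells.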

Q: For CC1COCCN1c1cc(C2(S(C)(=N)=O)CC2)nc(-c2ccnc3[nH]ccc23)n1 (centres undefined) + Nc1ccc(C#CCN(C(=O)Cc2ncc(C(F)(F)F)cc2C(F)(F)F)c2ccc(F)cc2)nn1, which IC50 (curve of first compound, second compound 0.0316 µM) is on record?
A: 3830 nM

Q: And the IC50 (curve of first compound, second compound 0.1 µM)?
A: 2330 nM

Q: What about the IC50 (curve of first compound, second compound 0.316 µM) of the same molecule?
A: 3220 nM

Q: And the IC50 (curve of first compound, second compound 1 µM)?
A: 2480 nM

Q: What about the IC50 (curve of first compound, second compound 3.16 µM) of the same molecule?
A: 1900 nM

Q: What about the IC50 (curve of first compound, second compound 10 µM) of the same molecule?
A: 1810 nM

Q: What about the viability, T/C (second compound 0.0316 µM, first compound 0.0316 µM) of the same molecule?
A: 105%

Q: What about the viability, T/C (second compound 0.0316 µM, first compound 0.1 µM) of the same molecule?
A: 83.7%

Q: And the viability, T/C (second compound 0.0316 µM, first compound 0.316 µM)?
A: 97.7%

Q: And the viability, T/C (second compound 0.0316 µM, first compound 1 µM)?
A: 76.1%

Q: What about the viability, T/C (second compound 0.0316 µM, first compound 3.16 µM) of the same molecule?
A: 58.7%

Q: And the viability, T/C (second compound 0.0316 µM, first compound 10 µM)?
A: 15.2%

Q: What about the viability, T/C (second compound 0.1 µM, first compound 0.0316 µM) of the same molecule?
A: 104%

Q: And the viability, T/C (second compound 0.1 µM, first compound 0.1 µM)?
A: 117%

Q: And the viability, T/C (second compound 0.1 µM, first compound 0.316 µM)?
A: 91.8%

Q: What about the viability, T/C (second compound 0.1 µM, first compound 1 µM) of the same molecule?
A: 91%

Q: And the viability, T/C (second compound 0.1 µM, first compound 3.16 µM)?
A: 35%

Q: What about the viability, T/C (second compound 0.1 µM, first compound 10 µM) of the same molecule?
A: 16%

Q: What about the viability, T/C (second compound 0.316 µM, first compound 0.0316 µM) of the same molecule?
A: 83.9%

Q: And the viability, T/C (second compound 0.316 µM, first compound 0.1 µM)?
A: 96.8%

Q: What about the viability, T/C (second compound 0.316 µM, first compound 0.316 µM) of the same molecule?
A: 96.7%

Q: And the viability, T/C (second compound 0.316 µM, first compound 1 µM)?
A: 82.8%

Q: And the viability, T/C (second compound 0.316 µM, first compound 3.16 µM)?
A: 50.9%

Q: And the viability, T/C (second compound 0.316 µM, first compound 10 µM)?
A: 14.2%

Q: And the viability, T/C (second compound 1 µM, first compound 0.0316 µM)?
A: 118%

Q: What about the viability, T/C (second compound 1 µM, first compound 0.1 µM) of the same molecule?
A: 98.6%

Q: And the viability, T/C (second compound 1 µM, first compound 0.316 µM)?
A: 94.2%

Q: And the viability, T/C (second compound 1 µM, first compound 1 µM)?
A: 78.2%

Q: What about the viability, T/C (second compound 1 µM, first compound 3.16 µM) of the same molecule?
A: 38.8%

Q: What about the viability, T/C (second compound 1 µM, first compound 10 µM) of the same molecule?
A: 22.6%

Q: And the viability, T/C (second compound 3.16 µM, first compound 0.0316 µM)?
A: 93.5%

Q: And the viability, T/C (second compound 3.16 µM, first compound 0.1 µM)?
A: 93.2%

Q: And the viability, T/C (second compound 3.16 µM, first compound 0.316 µM)?
A: 108%

Q: And the viability, T/C (second compound 3.16 µM, first compound 1 µM)?
A: 70.5%

Q: What about the viability, T/C (second compound 3.16 µM, first compound 3.16 µM) of the same molecule?
A: 34.1%

Q: And the viability, T/C (second compound 3.16 µM, first compound 10 µM)?
A: 17.9%

Q: And the viability, T/C (second compound 10 µM, first compound 0.0316 µM)?
A: 106%

Q: And the viability, T/C (second compound 10 µM, first compound 0.1 µM)?
A: 111%

Q: And the viability, T/C (second compound 10 µM, first compound 0.316 µM)?
A: 137%

Q: What about the viability, T/C (second compound 10 µM, first compound 1 µM) of the same molecule?
A: 75.3%

Q: What about the viability, T/C (second compound 10 µM, first compound 3.16 µM) of the same molecule?
A: 36.8%

Q: What about the viability, T/C (second compound 10 µM, first compound 10 µM) of the same molecule?
A: 16%

Q: Which viability, T/C (compound 0.0316 µM) does the source give for C=CC(=O)N1CCN(c2nc(=O)n(-c3c(C)ccnc3C(C)C)c3nc(-c4c(O)cccc4F)c(F)cc23)C(C)C1 (centres undefined) here?
A: 83.1% and 99.4% and 81.4%

Q: And the viability, T/C (compound 0.1 µM)?
A: 94.9% and 68.4% and 69.6%

Q: And the viability, T/C (compound 0.316 µM)?
A: 89.5% and 99.7% and 67.9%

Q: And the viability, T/C (compound 1 µM)?
A: 89.7% and 115% and 113%

Q: What about the viability, T/C (compound 3.16 µM) of the same molecule?
A: 102% and 110% and 112%

Q: What about the viability, T/C (compound 10 µM) of the same molecule?
A: 99.6% and 131% and 105%

Q: What about the IC50 (curve of compound) of the same molecule?
A: > 10000 nM
